Patent US20240156800A1, “EP300 DEGRADER AND USES THEREOF IN NEUROBLASTOMA” (DANA-FARBER CANCER INSTITUTE, INC., priority 2021, published 2024)

What was measured:
[1] = biological target: T1, EP300 (Homo sapiens, UniProt Q09472); assay: SILAC mass spectrometry of the nuclear proteome of Kelly cells (EP300); assay type: cell-based; conditions: 500 nM, 24 h, nuclear extract, p=3.3×10^−5
T1 construct: Cells growing in culture were lysed for whole cell lysates; endogenous in cells; host or cells: Kelly, NGP, SIMA, BE2C neuroblastoma cells; Kelly xenografts in NSG mice
T1 sequence (Q09472 whole entry): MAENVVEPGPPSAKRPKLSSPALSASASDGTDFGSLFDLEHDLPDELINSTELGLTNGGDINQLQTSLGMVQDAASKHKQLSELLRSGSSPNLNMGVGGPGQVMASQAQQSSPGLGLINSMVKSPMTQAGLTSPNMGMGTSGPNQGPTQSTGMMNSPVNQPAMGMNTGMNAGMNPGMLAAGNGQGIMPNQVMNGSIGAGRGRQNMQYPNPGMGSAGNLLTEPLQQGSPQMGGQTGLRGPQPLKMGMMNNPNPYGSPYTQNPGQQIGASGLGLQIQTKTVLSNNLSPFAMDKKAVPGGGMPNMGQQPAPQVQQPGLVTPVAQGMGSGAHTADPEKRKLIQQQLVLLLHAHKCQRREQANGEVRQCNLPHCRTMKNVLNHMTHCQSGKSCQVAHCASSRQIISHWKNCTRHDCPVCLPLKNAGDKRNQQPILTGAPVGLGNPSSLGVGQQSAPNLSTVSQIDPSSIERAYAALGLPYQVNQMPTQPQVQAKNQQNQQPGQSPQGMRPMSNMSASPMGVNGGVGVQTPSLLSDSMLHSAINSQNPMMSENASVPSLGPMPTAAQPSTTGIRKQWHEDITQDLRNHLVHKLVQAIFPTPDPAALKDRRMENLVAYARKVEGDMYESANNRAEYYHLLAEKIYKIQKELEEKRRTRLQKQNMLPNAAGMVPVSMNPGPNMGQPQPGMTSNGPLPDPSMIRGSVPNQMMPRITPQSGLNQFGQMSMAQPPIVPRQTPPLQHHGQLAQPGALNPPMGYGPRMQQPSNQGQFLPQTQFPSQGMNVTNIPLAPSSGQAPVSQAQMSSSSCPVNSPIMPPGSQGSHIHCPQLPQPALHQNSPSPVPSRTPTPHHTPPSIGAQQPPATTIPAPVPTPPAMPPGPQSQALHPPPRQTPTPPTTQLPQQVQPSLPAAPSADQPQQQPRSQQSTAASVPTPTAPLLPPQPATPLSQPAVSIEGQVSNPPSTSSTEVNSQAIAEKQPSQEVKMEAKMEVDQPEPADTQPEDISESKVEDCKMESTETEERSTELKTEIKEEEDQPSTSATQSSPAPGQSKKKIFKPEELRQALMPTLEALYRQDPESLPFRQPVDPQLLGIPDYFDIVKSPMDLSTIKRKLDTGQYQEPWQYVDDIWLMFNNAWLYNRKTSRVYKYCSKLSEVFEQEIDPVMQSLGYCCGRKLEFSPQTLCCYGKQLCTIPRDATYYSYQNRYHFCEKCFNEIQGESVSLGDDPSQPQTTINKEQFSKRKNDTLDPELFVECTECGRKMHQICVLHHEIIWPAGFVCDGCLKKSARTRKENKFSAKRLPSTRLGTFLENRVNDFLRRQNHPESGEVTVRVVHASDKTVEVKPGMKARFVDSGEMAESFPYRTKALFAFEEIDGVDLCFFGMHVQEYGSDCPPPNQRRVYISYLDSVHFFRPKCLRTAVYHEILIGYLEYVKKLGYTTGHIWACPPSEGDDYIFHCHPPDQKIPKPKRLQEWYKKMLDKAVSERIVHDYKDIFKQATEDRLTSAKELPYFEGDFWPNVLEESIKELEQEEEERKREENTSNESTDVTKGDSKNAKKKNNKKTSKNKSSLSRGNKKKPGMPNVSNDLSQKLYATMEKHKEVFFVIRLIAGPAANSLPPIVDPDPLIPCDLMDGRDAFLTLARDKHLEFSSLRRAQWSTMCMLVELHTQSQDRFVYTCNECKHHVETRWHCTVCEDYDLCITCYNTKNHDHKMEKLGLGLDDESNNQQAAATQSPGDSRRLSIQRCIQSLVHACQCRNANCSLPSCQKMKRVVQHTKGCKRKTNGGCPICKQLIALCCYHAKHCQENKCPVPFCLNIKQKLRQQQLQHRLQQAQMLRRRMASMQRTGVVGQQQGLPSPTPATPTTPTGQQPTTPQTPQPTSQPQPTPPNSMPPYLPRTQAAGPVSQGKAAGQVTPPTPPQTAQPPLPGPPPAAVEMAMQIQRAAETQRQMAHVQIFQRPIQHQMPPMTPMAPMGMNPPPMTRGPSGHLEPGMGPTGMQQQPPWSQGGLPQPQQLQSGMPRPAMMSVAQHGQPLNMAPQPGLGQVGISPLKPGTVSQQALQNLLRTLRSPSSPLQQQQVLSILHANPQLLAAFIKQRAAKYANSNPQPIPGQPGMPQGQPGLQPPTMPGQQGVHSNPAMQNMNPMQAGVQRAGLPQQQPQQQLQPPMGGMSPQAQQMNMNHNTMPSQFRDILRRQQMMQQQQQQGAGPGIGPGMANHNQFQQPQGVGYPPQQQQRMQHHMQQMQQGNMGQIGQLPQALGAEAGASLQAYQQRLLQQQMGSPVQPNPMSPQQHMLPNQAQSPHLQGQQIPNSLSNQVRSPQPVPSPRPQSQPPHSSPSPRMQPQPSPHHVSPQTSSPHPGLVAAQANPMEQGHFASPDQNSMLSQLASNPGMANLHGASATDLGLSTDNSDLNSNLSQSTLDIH
Method: Because JQAD1 interacted preferentially with both EP300 and CRBN, whether JQAD1 preferentially induces degradation of EP300 compared to CBP in MYCN-amplified neuroblastoma cells was examined. […] To further examine the specificity of JQAD1 for EP300, an analysis of the effects of JQAD1 in stable isotope labeling by amino acids in cell culture (SILAC)-labelled Kelly cells was performed (FIG. 3F). Kelly cells were cultured with SILAC media containing heavy or light-labelled arginine and lysine. Heavy labelled cells were treated with 500 nM JQAD1, and light-labelled cells treated with dimethyl sulfoxide (DMSO) for 24 h, prior to nuclear extraction and protein lysis. […] Protein abundance was then analyzed by mass spectrometry, to determine global changes in the nuclear proteome. […] To expand upon these findings, three NB cell lines, Kelly, NGP and SIMA, which have high levels of CRBN (e.g., protein or mRNA) (FIG. 8C), were treated with JQAD, and the effects on specific proteins were measured by western blotting. […] Peptides were detected, isolated, and fragmented to produce a tandem mass spectrum of specific fragment ions for each peptide. Peptide sequences and protein identity were determined by matching protein databases with the acquired fragmentation pattern by Sequest® (Thermo Fisher Scientific) (Eng et al. J. Am. Soc. Mass Spectrom. 5:976-89 (1994)). […]

[2] = biological target: T1, EP300; assay: Immunohistochemistry of EP300 in Kelly cell xenografts; assay type: in vivo; conditions: 40 mg/Kg once daily
Method: Separately, eight animals were xenografted as described above, and treated with vehicle (n=4) or JQAD1 (n=4) at 40 mg/kg IP daily for 14 days. These animals were sacrificed at day 14, following which tumor was extracted, and divided for immunohistochemical analysis or analysis of RNA expression by RNA sequencing (RNA-seq). Immunohistochemistry was performed on the Leica® Bond™ III automated staining platform. Antibody EP300 from Cell Signaling Technology®, catalog number 86377, clone D8Z4E, was run at 1:50 dilution using the Leica® Biosystems Refine Detection Kit with citrate antigen retrieval. Antibody KAT3A/CBP (catalog number ab2832, polyclonal, Abcam) was run at 1:200 using the Leica® Biosystems Refine Detection Kit with ethylenediaminetetraacetic acid (EDTA) antigen retrieval.

[3] = system: pro- and anti-apoptotic mRNA transcripts; assay: ERCC spike-in RNA-seq of treated Kelly cells; assay type: cell-based, human; conditions: 500 nM, 24 h
Method: For in vitro analyses, total RNA was extracted from control […] or JQAD1 treated Kelly cells using TRIzolTM reagent (Ambion). Prior to extraction, exogenous spike-in of synthetic External RNA Control Consortium (ERCC) RNA controls were added based on cell number (Ambion). Samples were treated with RNAse-free DNAse I and spin purified using the Qiagen® RNeasy Kit (Qiagen®). Purified RNA samples were subjected to library construction with poly-adenylation preparation and sequencing using the Illumina NextSeq® 500 (paired end, 75bp reads). RNA-seq reads were aligned to a reference index containing the sequences of the hg19 revision of the human reference genome and the ERCC spike-in probes using hisat 2.1.0. Expression was quantified using sorted BAMs, a gene reference built using ERCC sizes and RefSeq genes downloaded Jul. 15, 2017, and htseq-count with parameters -I gene_id- stranded=reverse -f bam -m intersection-strict. Read counts were converted to transcripts per million (TPM) and used for cell number-normalization. The expression of all RefSeq genes and ERCC probes was floored at 0.01 and a pseudocount of 0.1 was added to all entries. Values were normalized by equilibrating the expression of the ERCC probes among experiments using normalize.loess from the affy R package. The ERCC-normalized expression of each gene after 24 h of either […] or JQAD1 treatment was compared against its expression in dimethyl sulfoxide (DMSO) treated samples to create two-fold changes.

**Q.** Which EP300 protein abundance [1] does the source give for C[C@H](N(Cc1ccc(F)cc1)C(=O)CN1C(=O)O[C@@]2(CCc3cc(NC(=O)CCCCCCCCCCCNc4ccc5c(c4)C(=O)N(C4CCC(=O)NC4=O)C5=O)ccc32)C1=O)C(F)(F)F (stereo partly drawn) [JQAD1, 12-((2-(2,6-dioxopiperidin-3-yl)-1,3-dioxoisoindolin-5-yl)amino)-N-((R)-3′-(2-((4-fluorobenzyl)((S)-1,1,1-trifluoropropan-2-yl)amino)-2-oxoethyl)-2′,4′-dioxo-2,3-dihydrospiro[indene-1,5′-oxazolidin]-5-yl)dodecanamide] here?
**A.** Its EP300 protein abundance is “significantly decreased”.

**Q.** What about the “EP300 immunostaining of tumors” value [2] of the same compound?
**A.** The value was “loss of EP300 immunostaining compared with vehicle control tumors”.

**Q.** What about the “transcript levels of BIM, BID, PUMA, BAX, BCL2 and MCL1” value [3] of the same compound?
**A.** Its value is “upregulation”.

**Q.** And the “gene set enrichment analysis, hallmark gene sets” value ([3]; JQAD1 versus A485)?
**A.** The value was “enrichment of the apoptosis hallmark gene set”.
